Article PMC5612656, “In vitro and in vivo effects of 2,4 diaminoquinazoline inhibitors of the decapping scavenger enzyme DcpS: Context-specific modulation of SMN transcript levels” (PLoS ONE, 2017)
“And” between values parts separate entries of the source, which are not always exact repeats. Equal entries are not always repeated.

What was measured:
[1] = tested on: SMN transcripts in HEK-293T cells; test: SMN transcripts by ddPCR in HEK-293T cells; settings: HEK293T cells
[2] = Plasma drug levels after P4-P16 dosing; settings: FVB/N background, mouse, ip
From the text: Personnel conducting studies followed the approved standard operating procedures for daily monitoring, dosing, weaning and euthanasia according to the approved study protocol. […] Line maintenance was maintained by interbreeding of the congenic line and every 4th generation mice were outbred to wild type FBV/N mice (jax # 001800) to reduce the possibility of new mutations within the line. Smn 2B mice were internally developed and maintained in the DiDonato laboratory. To generate the SMA mice used in this study an intercross between Smn 2B/2B and Smn +/- mice was performed. This generated litters in which 50% of the offspring were control (2B/+) and 50% SMA (2B/-). The day of birth was considered to be P0. If pups were born after 3pm, the following day was considered P0. At P1, pups were counted. If greater than 10 pups to a cage, pups were randomly chosen and moved to another cage to increase litter size, culled to reduce litter size or genotyped at P1 and culled at P2 to reduce litter size to 10 or fewer pups. Thereafter, no culling of pups was performed for drug studies. Individual mice were genotyped from DNA obtained from tail snips by polymerase chain reaction (PCR). All mice were weaned at P21 and separated into male and female cages. […] For the PK single dose studies a single ip injection was used. […] Body weights were recorded daily in the AM and dosing volume was adjusted accordingly. […]

SMN protein = SMN protein by Western blot in SMA cells (fibroblasts, lymphoblasts, iPS-derived neural progenitor cells); assay type: cell-based, human; settings: 24 hours to 7 days
Procedure: Lysates were incubated at 95°C for 5 minutes and cleared at 14,000 RPM for 15 minutes. Cleared lysates were quantified by BCA assay. A total of 5 μg of each lysate was mixed with NuPage LDS sample buffer with […] and loaded and separated on a NuPage 10% Bis-Tris gel. Proteins were transferred to 0.2 micron nitrocellulose using the BioRad Turbo Transfer system.

[3] = cited from earlier work
N2a cells = test: RNA-Seq (polyA RNA) of N2a neuroblastoma cells; assay type: cell-based, mouse
Procedure: Cells were then pelleted and lysed in RLT and the RNA was purified according to the protocol for the Qiagen miRNeasy kit to separate and enrich small RNA and large (>200 nt) fractions separately. […] RNA quality was also validated using qPCR for DcpS responsive genes. RNA fractions were used for cDNA library preparation which was performed using Truseq mRNA v2 reagents or TailorMix miRNA reagents (RS-122-2101 Illumina, San Diego CA, USA and TM302 Seqmatic, Fremont CA, USA). Libraries were run on a Nextseq 500 (Illumina) using a paired-end run (2x75bp) generating ~60 million reads per library for the mRNA-seq and 1x75bp generating ~5 million reads per library for the miRNA-seq. Demultiplexing, alignment, and differential analysis for the mRNA-seq were performed as described below. For the miRNA alignment, briefly the sequences between 16 and 35 nucleotides with average phred score ≥ 30 were retained for analysis. The reads were first mapped to mouse miRNAs using Bowtie without allowing for mismatches. Instead of discarding the remaining reads, we explored the possibilities of RNA editing to include potential isomiRs. These reads were mapped to miRNAs that have at most 1 base mismatch, a substitution at the 5’ or 3’ ends, or have 1 or 2 extra bases at either ends. Although 1 base mismatch would include 1 base substitution/deletion/addition at the ends, we made sure that 1 base mismatch was inside the miRNA and that all categories were mutually exclusive. Reads mapping to protein coding exons and other small RNAs were removed prior to mapping to miRNAs. Reads that uniquely mapped to miRNAs were considered and were profiled as: 1) identical to miRNAs, 2) perfect match to miRNAs but are of shorter length (no more than 5 bases short), 3) mapping to miRNAs with 1 substitution, 1 or 2 extra bases at 3’ and 5’ ends and with those with at most 1 mismatch (occurring inside the sequence and not on ends), 4) mapping to the precursor miRNA. Thus, steps 2–4 constitute “IsomiRs”-alternative forms of the mature miRNAs. We merged the counts of reads identical to a miR and those mapping to isomeric forms as they are found to have identical/very similar functions. The unaligned reads were mapped to the mouse genome and an internally developed database of rRNAs from bacteria, fungi, plant and eukaryotes to detect presence of contaminants. For differential analysis of miRNAs, only those with counts of ≥5 in at least 1/3rd samples (treatment vs control) were considered for analysis. The counts were normalized and analyzed using EdgeR [19] packages in R-Bioconductor. The P-values were corrected by FDR for multiple testing and miRNAs with FDR ≤15% and |FC|>1.5 were considered to be differentially expressed.
The differentially regulated gene lists for both the spinal cord mRNA-seq and the N2a mRNA-seq results with a corrected P-value less than 0.05 were loaded into IPA and analyzed against the Ingenuity Knowledgebase, Ingenuity Expert Information, and with experimentally observed confidence.

N2a cells miRNA = test: miRNA RNA-Seq of N2a cells; assay type: cell-based, mouse; settings: approximately 700 detectable
Procedure: Cells were then pelleted and lysed in RLT and the RNA was purified according to the protocol for the Qiagen miRNeasy kit to separate and enrich small RNA and large (>200 nt) fractions separately. […] RNA quality was also validated using qPCR for DcpS responsive genes. RNA fractions were used for cDNA library preparation which was performed using Truseq mRNA v2 reagents or TailorMix miRNA reagents (RS-122-2101 Illumina, San Diego CA, USA and TM302 […], Fremont CA, USA). Libraries were run on a Nextseq 500 (Illumina) using a paired-end run (2x75bp) generating ~60 million reads per library for the mRNA-seq and 1x75bp generating ~5 million reads per library for the miRNA-seq. […] The reads were first mapped to mouse miRNAs using Bowtie without allowing for mismatches. Instead of discarding the remaining reads, we explored the possibilities of RNA editing to include potential isomiRs. These reads were mapped to miRNAs that have at most 1 base mismatch, a substitution at the 5' or 3' ends, or have 1 or 2 extra bases at either ends. […] Reads mapping to protein coding exons and other small RNAs were removed prior to mapping to miRNAs. […] We merged the counts of reads identical to a miR and those mapping to isomeric forms as they are found to have identical/very similar functions. […] The counts were normalized and analyzed using EdgeR [19] packages in R-Bioconductor.

2B/- SMA mice = test: Survival and body weight study in 2B/- SMA mice; assay type: in vivo, mouse
[4] = 1 μM, 24 hours, 18,409 detectable

Nc1nc(N)c2c(OCC3CCN(Cc4c(Cl)cccc4Cl)CC3)cccc2n1 [RG3039]
SMN2 transcript increase at later time points ([1]; 8 or 24hr): much reduced or absent
increase in SMN2 transcript ([1]; after 4h of treatment): ~ 20%
concentration at 12 h [2]: 4.24 ± 1.13 nM
SMN protein (SMN protein): in no experimental condition tested were we able to detect an increase in SMN protein
physicochemical character (lipophilicity, basicity) [3]: highly lipophilic and dibasic
tissue accumulation compared to plasma [3]: significantly accumulates in all tissues compared to plasma
differential expression of Smn and DcpS (N2a cells; 1 μM, 24 hours): neither Smn nor DcpS itself were differentially expressed
down-regulated genes as share of differentially expressed genes (N2a cells; 1 μM, 24 hours): 41.7%
genes changed by less than one Log2 units (2-fold) in either direction (N2a cells; 1 μM, 24 hours): 1,489 genes
genes changed by less than one Log2 units (2-fold), share (N2a cells; 1 μM, 24 hours): 70.9%
genes changed by more than 2 log2 units (4-fold) in either direction (N2a cells; 1 μM, 24 hours): 80 genes
genes changed by more than 2 log2 units (4-fold), share (N2a cells; 1 μM, 24 hours): 3.8%
genes down-regulated by compound (P < 0.05) (N2a cells; 1 μM, 24 hours): 878 genes
pathways significantly affected (P < 0.05), Ingenuity Pathway Analysis (N2a cells; 1 μM, 24 hours): 53 pathways
proportion of detectable genes affected (N2a cells; 1 μM, 24 hours): > 11% and 11.4%
upregulated genes as share of differentially expressed genes (N2a cells; 1 μM, 24 hours): 58.3%
down-regulated genes as percentage of total detectable genes (N2a cells; [4]): 4.77%
upregulated genes as percentage of total detectable genes (N2a cells; [4]): 6.66%
genes differentially expressed compared to DMSO (P < 0.05) (N2a cells; 1 μM, 24 hours, 18,409 detectable genes): 2,104 genes
log2(fold-change), gene 1600020E01Rik (N2a cells; RG3039 vs DMSO, adjusted p-value 1.05E-117): 2.871
log2(fold-change), gene Krcc1 (N2a cells; RG3039 vs DMSO, adjusted p-value 1.14E-85): -2.734
log2(fold-change), gene Apba1 (N2a cells; RG3039 vs DMSO, adjusted p-value 1.54E-112): -5.025
log2(fold-change), gene Rnf157 (N2a cells; RG3039 vs DMSO, adjusted p-value 3.09E-99): -3.057
log2(fold-change), gene Stra6 (N2a cells; RG3039 vs DMSO, adjusted p-value 4.32E-66): -2.291
Paqr8 log2 fold change (N2a cells; decreased, P = 0.00251): 0.657
Dpm3 log2 fold change (N2a cells; increased, P = 0.000012): 0.884
Pigw log2 fold change (N2a cells; increased, P = 1.89 x 10^−30): 1.54
miR species differentially regulated by RG3039 but not PF-06802336 (N2a cells miRNA): no miR species
effect on survival, RG3039 compared to PF-06738066 (2B/- SMA mice; P < 0.05 by either test): slightly greater effect on survival than PF-06738066
effect on survival of SMA mice compared to vehicle-treated SMA mice (2B/- SMA mice; b.i.d. i.p. P4-P20, RG3039 6 mg/kg, PF-06738066 10 mg/kg, P < 0.0001 Mantel-Cox or Gehan-Breslow-Wilcoxon): statistically significant beneficial effect on survival
